Measured values as given in patent US6858621B2, “2-(quinolonyl)-fused heterocycles as androgen receptor modulators” (Ortho-McNeil Pharmaceutical, Inc., priority 2002, dated 2005).

Biological target: T1, androgen receptor LBD (Panvera) (Rattus norvegicus, UniProt P15207)
T1 construct: 5 pmol androgen receptor LBD (Panvera); purchased Panvera
T1 sequence (P15207 651-882 limits assumed): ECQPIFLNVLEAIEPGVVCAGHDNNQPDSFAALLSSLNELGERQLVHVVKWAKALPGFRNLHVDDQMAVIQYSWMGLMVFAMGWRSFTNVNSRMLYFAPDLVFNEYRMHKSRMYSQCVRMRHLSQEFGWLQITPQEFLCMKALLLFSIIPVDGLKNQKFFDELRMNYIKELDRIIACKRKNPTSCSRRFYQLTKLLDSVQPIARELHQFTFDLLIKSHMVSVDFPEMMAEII
Assay: Androgen Receptor Filtration Binding Assay (Panvera receptor)
Conditions: Panvera receptor data; 0.5 nM [3H] R1881 tracer
Description: In Vitro Assay—Androgen Receptor Filtration Binding Assay
The assay was run on a 96 well plate with each well filled with total reaction volume 150 μL, of a solution containing 5 pmol androgen receptor LBD (Panvera) or […] of freshly prepared rat cytosol, 0.5 nM [^3H] R1881 tracer (NEN), 1.5 μL (10 μM) test compound or vehicle (diluted in 30% DMSO, final concentration of DMSO 0.75%) and […] of TED buffer. (TED buffer contains 10 mM Tris.HCl pH 7.4, 1 mM sodium molybdate (60 mg/250 mL), 1.5 mM EDTA, 1 mM DTT and 10% (v/v) glycerol.)
On day one, the solution containing receptor, tracer and TED buffer was distributed onto a 96 well plate. Diluted test compound or control vehicle was then added to individual wells and the plate incubated ay 4° C. overnight.
On day two, to each well was then added 20 μL human γ-globulin (ICN 823102), prepared at 25 mg/ml in TE pH 8.0 and 55 μL 40% polyethylene glycol 8000 (J T Baker U222-08), prepared in TE pH 8.0. […] The plate wells were then counted on a TopCount (Packard).
Representative compounds of the present invention were tested for binding to the androgen receptor according to the procedure described above with results as listed in Table 3. % Inhibition values less that 0% indicate no binding at the […] level. The negative number(s) are a result of experimental error from the low number of counts detected.

SMILES | IC50
O=c1cc(C(F)(F)F)c2c3c(ccc2[nH]1)OCCO3 [compound 1] | 5.2 µM
O=c1cc(C(F)(F)F)c2c3c(ccc2[nH]1)OC(F)(F)C(F)(F)O3 [compound 2] | 4.8 µM
